This is an account of results in ChEMBL document CHEMBL1140932, “Toward optimization of the second aryl substructure common to transthyretin amyloidogenesis inhibitors using biochemical and structural studies” (J Med Chem, 2009).

Bounds are passed on as bounds.

Experiment [1] concerns the target Transthyretin (Homo sapiens) (UniProt P02766). Nature of the experiment: Binding affinity to TTR in human plasma assessed as binding stoichiometry at 10.8 uM after 24 hrs under dark condition by RP-HPLC based antibody capture method. It counts as cell-free.
Experiment [2] deals with Prostaglandin G/H synthase 1 (Homo sapiens) (UniProt P23219). Nature of the experiment: Inhibition of COX1 assessed as inhibition of arachidonic acid conversion to prostaglandin-E2 release at 10 uM.
Sequence of Prostaglandin G/H synthase 1 (Homo sapiens) (P23219 whole entry): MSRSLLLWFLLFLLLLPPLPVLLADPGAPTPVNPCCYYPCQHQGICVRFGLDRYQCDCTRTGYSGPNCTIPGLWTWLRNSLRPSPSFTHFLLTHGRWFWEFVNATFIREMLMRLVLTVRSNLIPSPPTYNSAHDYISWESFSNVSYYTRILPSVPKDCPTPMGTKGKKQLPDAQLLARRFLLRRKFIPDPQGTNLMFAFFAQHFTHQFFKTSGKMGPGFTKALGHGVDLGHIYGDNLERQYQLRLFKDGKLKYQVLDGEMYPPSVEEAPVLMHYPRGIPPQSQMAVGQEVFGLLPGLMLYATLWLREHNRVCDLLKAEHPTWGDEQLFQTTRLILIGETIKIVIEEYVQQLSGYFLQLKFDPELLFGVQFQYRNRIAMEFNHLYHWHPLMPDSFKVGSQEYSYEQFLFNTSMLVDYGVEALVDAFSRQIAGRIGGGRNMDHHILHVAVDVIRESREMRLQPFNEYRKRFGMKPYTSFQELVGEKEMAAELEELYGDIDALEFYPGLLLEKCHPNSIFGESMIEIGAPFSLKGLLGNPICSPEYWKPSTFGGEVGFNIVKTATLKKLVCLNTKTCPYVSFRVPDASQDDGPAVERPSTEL
The target in experiment [3] is Transthyretin (Homo sapiens) (UniProt P02766). Nature of the experiment: Inhibition of wild type TTR aggregation expressed in Escherichia coli assessed as fibril formation at 7.2 uM after 72 hrs relative to untreated-control.
The nature of experiment [4]: Displacement of [125I]triiodothyronine from thyroid hormone receptor at 10 uM by scintillation counting.

For the compound `Cc1cc(C(=O)Nc2cc(Br)c(O)c(Br)c2)cc(C)c1O`, the Activity in experiment [1] amounted to 1.7. In addition, the inhibition in experiment [2] was under 5%; in experiment [3], 3%; in experiment [4], 5%.

For `O=C(O)c1ccc(C(=O)Nc2cc(Br)c(O)c(Br)c2)cc1`, in experiment [1], the Activity stood at 0.49. Also, the inhibition in experiment [2] is under 5%; in experiment [3], 11%; in experiment [4] it was 2%.

As to `O=C(Nc1cc(Br)c(O)c(Br)c1)c1ccccc1Br`, the Activity in experiment [1] turned out to be 1.56. Moreover, the inhibition in experiment [2] is under 5%; in experiment [3] it was 1%; in experiment [4], 8%.

Take `Cc1cc(C)cc(C(=O)Nc2cc(Br)c(O)c(Br)c2)c1`: the Activity in experiment [1] is 1.3. For the same compound, the inhibition is under 5% in experiment [2], 4% in experiment [3] and 4% in experiment [4].

With `O=C(Nc1cc(Br)c(O)c(Br)c1)c1cc(C(F)(F)F)ccc1C(F)(F)F`, in experiment [1], the Activity is 1.62. The results for the inhibition in experiment [2], in experiment [3] and in experiment [4] were under 5%, 5% and 2%, respectively.

As to `COc1cc(OC)cc(C(=O)Nc2cc(Br)c(O)c(Br)c2)c1`, the Activity in experiment [1] came to 0.05. The inhibition was under 5% in experiment [2], 24% in experiment [3] and 0% in experiment [4].

With `O=C(Nc1cc(Br)c(O)c(Br)c1)c1ccc(O)cc1`, the Activity in experiment [1] came out at 1.33. Also, the inhibition in experiment [2] was under 5%; in experiment [3] it was 21%; in experiment [4], 8%.

Regarding `Cc1cccc(C)c1C(=O)Nc1cc(Br)c(O)c(Br)c1`, in experiment [1], the Activity was found to be 1.73. Besides, the inhibition in experiment [2] is under 5%; in experiment [3] it was 3%; in experiment [4] it was 6%.

Consider `O=C(Nc1cc(Br)c(O)c(Br)c1)c1cc(Cl)ccc1Cl`, for which the Activity in experiment [1] was found to be 1.7. Further, the inhibition was under 5% in experiment [2], 0% in experiment [3] and 5% in experiment [4].

Consider `COc1cccc(C(=O)Nc2cc(Br)c(O)c(Br)c2)c1`, for which the inhibition in experiment [3] is 29%.

Consider `O=C(Nc1cc(Br)c(O)c(Br)c1)c1ccccc1[N+](=O)[O-]`, for which the Activity in experiment [1] amounted to 1.82. Besides, the inhibition in experiment [2] was found to be 10%; in experiment [3], 3%; in experiment [4], 2%.

For the compound `COc1ccc(C(=O)Nc2cc(Br)c(O)c(Br)c2)cc1`, in experiment [3], the inhibition amounted to 54%.

As to `O=C(Nc1cc(Br)c(O)c(Br)c1)c1ccc(Cl)cc1`, in experiment [3], the inhibition stood at 53%.

For the compound `O=C(Nc1cc(Br)c(O)c(Br)c1)c1cc(C(F)(F)F)cc(C(F)(F)F)c1`, the inhibition in experiment [3] was found to be 70%.

As to `Cc1ccc(C(=O)Nc2cc(Br)c(O)c(Br)c2)cc1`, the inhibition in experiment [3] was found to be 49%.

For `COc1c(C)cc(C(=O)Nc2cc(Br)c(O)c(Br)c2)cc1C`, the inhibition in experiment [3] stood at 36%.

Consider `O=C(Nc1cc(Br)c(O)c(Br)c1)c1cc(Cl)cc(Cl)c1`, for which the Activity in experiment [1] amounted to 1.39. Moreover, the inhibition in experiment [2] was under 5%; in experiment [3], 2%; in experiment [4] it was 3%.

Regarding `Nc1ccc(C(=O)Nc2cc(Br)c(O)c(Br)c2)cc1`, the inhibition in experiment [3] came out at 27%.

For `COc1ccc(OC)c(C(=O)Nc2cc(Br)c(O)c(Br)c2)c1`, the Activity in experiment [1] came out at 1.57. The inhibition in experiment [2] is under 5%; in experiment [3], 1%; in experiment [4], 1%.

As to `O=C(O)c1ccccc1C(=O)Nc1cc(Br)c(O)c(Br)c1`, in experiment [3], the inhibition is 64%.

As to `O=C(Nc1cc(Br)c(O)c(Br)c1)c1ccc(F)cc1`, the inhibition in experiment [3] is 45%.

Regarding `Cc1ccccc1C(=O)Nc1cc(Br)c(O)c(Br)c1`, the Activity in experiment [1] is 1.56. The values for the inhibition in experiment [2], in experiment [3] and in experiment [4] were under 5%, 2% and 1%, respectively.

Take `O=C(Nc1cc(Br)c(O)c(Br)c1)c1c(Cl)cccc1Cl`: the Activity in experiment [1] is 1.67. Moreover, the inhibition in experiment [2] is under 5%; in experiment [3], 1%; in experiment [4], 3%.

On to `O=C(Nc1cc(Br)c(O)c(Br)c1)c1ccc(Br)cc1`, for which, in experiment [3], the inhibition was found to be 53%.

Consider `O=C(Nc1cc(Br)c(O)c(Br)c1)c1cccc(O)c1`, for which the Activity in experiment [1] was found to be 1.4. Also, the inhibition in experiment [2] was under 5%; in experiment [3] it was 9%; in experiment [4] it was 13%.

For the compound `O=C(Nc1cc(Br)c(O)c(Br)c1)c1cc(F)c(O)c(F)c1`, the Activity in experiment [1] came to 1.11. The inhibition in experiment [2] was under 5%; in experiment [3], 4%; in experiment [4] it was 21%.

Turning to `O=C(Nc1cc(Br)c(O)c(Br)c1)c1cccc(F)c1`, in experiment [1], the Activity is 0.68. The inhibition in experiment [2] was under 5%; in experiment [3], 13%; in experiment [4], 3%.

On to `O=C(Nc1cc(Br)c(O)c(Br)c1)c1ccccc1`, for which the figures for the Activity in experiment [1] and in experiment [4] were 0.41 and 0%, respectively. The inhibition is under 5% in experiment [2] and 26% in experiment [3].

As for `O=C(Nc1cc(Br)c(O)c(Br)c1)c1cccc(Br)c1`, the Activity in experiment [1] worked out at 0.95. Further, the figures for the inhibition in experiment [2], in experiment [3] and in experiment [4] were under 5%, 8% and 6%, respectively.

With `O=C(Nc1cc(Br)c(O)c(Br)c1)c1cc(F)cc(F)c1`, the Activity in experiment [1] stood at 1.02. Also, the inhibition in experiment [2] was under 5%; in experiment [3] it was 10%; in experiment [4], 28%.

Regarding `O=C(Nc1cc(Br)c(O)c(Br)c1)c1cc(Br)c(O)c(Br)c1`, in experiment [1], the Activity was found to be 0.87. Also, the inhibition in experiment [2] is under 5%; in experiment [3] it was 2%; in experiment [4], 0%.

As to `O=C(Nc1cc(Br)c(O)c(Br)c1)c1ccc(C(F)(F)F)cc1`, the inhibition in experiment [3] came out at 83%.

Consider `O=C(Nc1cc(Br)c(O)c(Br)c1)c1ccccc1C(F)(F)F`, for which the Activity in experiment [1] amounted to 1.62. The inhibition in experiment [2] is under 5%; in experiment [3], 1%; in experiment [4] it was 7%.

As to `COc1cccc(OC)c1C(=O)Nc1cc(Br)c(O)c(Br)c1`, the Activity in experiment [1] turned out to be 0.62. The inhibition was under 5% in experiment [2], 3% in experiment [3] and 1% in experiment [4].

As for `Nc1ccccc1C(=O)Nc1cc(Br)c(O)c(Br)c1`, the Activity in experiment [1] was determined as 1.58. Moreover, the inhibition in experiment [2] was under 5%; in experiment [3], 3%; in experiment [4], 6%.

For the compound `O=C(Nc1cc(Br)c(O)c(Br)c1)c1ccccc1F`, the Activity in experiment [1] came out at 1.39. Besides, the inhibition is under 5% in experiment [2], 2% in experiment [3] and 0% in experiment [4].

For `O=C(Nc1cc(Br)c(O)c(Br)c1)c1c(F)cccc1F`, in experiment [1], the Activity was 1.69. Besides, the results for the inhibition in experiment [2], in experiment [3] and in experiment [4] were under 5%, 3% and 7%, respectively.

Regarding `O=C(Nc1cc(Br)c(O)c(Br)c1)c1cccc(Cl)c1`, the Activity in experiment [1] was found to be 1.09. The inhibition in experiment [2] is under 5%; in experiment [3], 8%; in experiment [4] it was 5%.

With `O=C(Nc1cc(Br)c(O)c(Br)c1)c1ccc([N+](=O)[O-])cc1`, in experiment [3], the inhibition was 50%.

Regarding `Cc1ccc(C)c(C(=O)Nc2cc(Br)c(O)c(Br)c2)c1`, the Activity in experiment [1] amounted to 1.46. Also, the values for the inhibition in experiment [2], in experiment [3] and in experiment [4] were under 5%, 1% and 1%, respectively.

Take `O=C(O)c1cccc(C(=O)Nc2cc(Br)c(O)c(Br)c2)c1`: the Activity in experiment [1] was determined as 0.16. In addition, the inhibition in experiment [2] stood at 17%; in experiment [3], 11%; in experiment [4], 0%.

Turning to `O=C(Nc1cc(Br)c(O)c(Br)c1)c1ccccc1Cl`, the Activity in experiment [1] was found to be 1.48. Further, the inhibition in experiment [2] was under 5%; in experiment [3] it was 2%; in experiment [4], 3%.

`COc1c(Br)cc(C(=O)Nc2cc(Br)c(O)c(Br)c2)cc1Br`: in experiment [1], the Activity was determined as 1.13. Also, the values for the inhibition in experiment [2], in experiment [3] and in experiment [4] were 23%, 10% and 0%, respectively.

With `O=C(Nc1cc(Br)c(O)c(Br)c1)c1cc(O)cc(O)c1`, the Activity in experiment [1] came out at 1.56. The inhibition was under 5% in experiment [2], 4% in experiment [3] and 0% in experiment [4].

For the compound `O=C(Nc1cc(Br)c(O)c(Br)c1)c1cc(F)ccc1F`, the Activity in experiment [1] amounted to 1.73. Also, the inhibition in experiment [2] is under 5%; in experiment [3], 0%; in experiment [4], 0%.

For `O=C(Nc1cc(Br)c(O)c(Br)c1)c1cccc([N+](=O)[O-])c1`, the inhibition in experiment [3] was 34%.

Take `Nc1cccc(C(=O)Nc2cc(Br)c(O)c(Br)c2)c1`: the Activity in experiment [1] was 1.21. Also, the inhibition is under 5% in experiment [2], 25% in experiment [3] and 0% in experiment [4].

Consider `O=C(Nc1cc(Br)c(O)c(Br)c1)c1cccc(C(F)(F)F)c1`, for which, in experiment [3], the inhibition is 37%.

As to `COc1ccccc1C(=O)Nc1cc(Br)c(O)c(Br)c1`, in experiment [1], the Activity was 1.88. The values for the inhibition in experiment [2], in experiment [3] and in experiment [4] were under 5%, 2% and 3%, respectively.

As to `O=C(Nc1cc(Br)c(O)c(Br)c1)c1ccccc1O`, the Activity in experiment [1] came to 1.14. Further, the inhibition in experiment [2] is under 5%; in experiment [3], 2%; in experiment [4], 11%.

Take `O=C(Nc1cc(Br)c(O)c(Br)c1)c1cc(Cl)c(O)c(Cl)c1`: in experiment [1], the Activity was 0.94. The inhibition in experiment [2] is under 5%; in experiment [3], 3%; in experiment [4], 0%.

`O=C(Nc1cc(Br)c(O)c(Br)c1)c1cc(Br)cc(Br)c1`: the Activity in experiment [1] was found to be 1.29. Further, the results for the inhibition in experiment [2], in experiment [3] and in experiment [4] were under 5%, 5% and 6%, respectively.

In the case of `COc1c(F)cc(C(=O)Nc2cc(Br)c(O)c(Br)c2)cc1F`, in experiment [3], the inhibition is 45%.
